# pEC50: −log10 of the molar value.
# System: 5HT2A sensor
# Test: 5HT2A sensor assay, antagonist mode (sLight1.3s HEK293T stable line)
# Type: cell-based
# Conditions: 100 nM compound; relative to 5-HT at 100 nM
# Description: In some embodiments, the 5HT2A sensor assay is in an antagonist mode.
# (§1) 5HT2A Sensor Assays. HEK293T (ATCC) 5HT2A sensor stable line (sLight1.3s) was generated via lentiviral transduction of HIV-EF1α-sLight1.3 and propagated from a single colony. Lentivirus was produced using 2nd generation lentiviral plasmids pHIV-EF1α-sLight1.3, pHCMV-G, and pCMV-deltaR8.2.
# (§2) For the screening of the 41 compounds, sLight1.3s cells were plated in 96-well plates at a density of 40000 24-hours prior to imaging. On the day of imaging, compounds solubilized in DMSO were diluted from the 100 mM stock solution to working concentrations of 1 mM, 100 μM and 1 μM with a DMSO concentration of 1%. Immediately prior to imaging, cells growing in DMEM (Gibco) were washed 2× with HBSS (Gibco) and in agonist mode 180 μL of HBSS or in antagonist mode 160 μL of HBSS was added to each well after the final wash. For agonist mode, images were taken before and after the addition of the 20 μL compound working solution into the wells containing 180 μL HBSS. This produced final compound concentrations of 100 μM, 10 μM and 100 nM with a DMSO concentration of 0.1%. For antagonist mode, images were taken before and after addition of 20 μL of 900 nM 5-HT and again after 20 μL of the compound working solutions to produce final concentrations of 100 nM for 5HT and 100 μM, 10 μM and 100 nM for the compounds with a DMSO concentration of 0.1%. Each compound was tested in triplicates (3 wells) for each concentration (100 μM, 10 μM and 100 nM). Additionally, within each plate, 100 nM 5HT and 0.1% DMSO controls were also imaged.
# (§3) Imaging was performed using the Leica DMi8 inverted microscope with a 40× objective using the FITC preset with an excitation of 460 nm and emission of 512-542 nm. For each well, the cellular membrane where the 5HT2A sensor is targeted was autofocused using the adaptive focus controls and 5 images from different regions within the well were taken with each image processed from a 2×2 binning.
# (§4) For data processing, the membranes from each image was segmented and analyzed using a custom algorithm written in MATLAB producing a single raw fluorescence intensity value. For each well the 5 raw fluorescence intensity values generated from the 5 images were averaged and the change in fluorescence intensity (dFF) was calculated as: dFF=(Fsat−Fapo)/Fapo
# (§5) For both agonist and antagonist modes, the fluorescence intensity values before compound addition in HBSS only were used as the Fapo values while the fluorescence intensity values after compound addition were used as the Fsat values.
# (§6) For agonist mode, data are as percent activation relative to 5HT, where 0 is the average of the DMSO wells and 100 is the average of the 100 uM 5HT wells. For antagonist mode, the inactivation score was calculated as: Inactivation score=(dFFF(Compound+5HT)−dFF(5HT))/dFF(5HT)
row,SMILES,5HT2A Antagonist mean @ 100 nM (%)
1,"FC(F)(F)Oc1ccc2c(ccn2CCN2CCCCC2)c1 [Example 51, 1-(2-(piperidin-1-yl)ethyl)-5-(trifluoromethoxy)-1H-indole]",A (inhibits 5HT response by >100%)
2,"FC(F)(F)Oc1ccc2c(ccn2CCN2CCOCC2)c1 [Example 52, 4-(2-(5-(trifluoromethoxy)-1H-indol-1-yl)ethyl)morpholine]",A (inhibits 5HT response by >100%)
3,"CN(C)CCn1cnc2ccccc21 [Example 57, 2-(1H-benzo[d]imidazol-1-yl)-N,N-dimethylethan-1-amine]",B (inhibits 5HT response by 75% to 100%)

# Same assay, conditions: 10 μM compound; relative to 5-HT at 100 nM
row,SMILES,5HT2A Antagonist mean @ 10 μM (%)
1,"FC(F)(F)Oc1ccc2c(ccn2CCN2CCCCC2)c1 [Example 51, 1-(2-(piperidin-1-yl)ethyl)-5-(trifluoromethoxy)-1H-indole]",A (inhibits 5HT response by >100%)
2,"FC(F)(F)Oc1ccc2c(ccn2CCN2CCOCC2)c1 [Example 52, 4-(2-(5-(trifluoromethoxy)-1H-indol-1-yl)ethyl)morpholine]",B (inhibits 5HT response by 75% to 100%)
3,"CN(C)CCn1cnc2ccccc21 [Example 57, 2-(1H-benzo[d]imidazol-1-yl)-N,N-dimethylethan-1-amine]",A (inhibits 5HT response by >100%)

# Same assay, conditions: 100 μM compound; relative to 5-HT at 100 nM
row,SMILES,5HT2A Antagonist mean @ 100 μM (%)
1,"FC(F)(F)Oc1ccc2c(ccn2CCN2CCCCC2)c1 [Example 51, 1-(2-(piperidin-1-yl)ethyl)-5-(trifluoromethoxy)-1H-indole]",A (inhibits 5HT response by >100%)
2,"FC(F)(F)Oc1ccc2c(ccn2CCN2CCOCC2)c1 [Example 52, 4-(2-(5-(trifluoromethoxy)-1H-indol-1-yl)ethyl)morpholine]",B (inhibits 5HT response by 75% to 100%)
3,"CN(C)CCn1cnc2ccccc21 [Example 57, 2-(1H-benzo[d]imidazol-1-yl)-N,N-dimethylethan-1-amine]",A (inhibits 5HT response by >100%)

# Target: T1, 5HT2A (Homo sapiens, UniProt P28223)
# T1 construct: expressed in transfected cells
# T1 sequence (P28223 whole entry): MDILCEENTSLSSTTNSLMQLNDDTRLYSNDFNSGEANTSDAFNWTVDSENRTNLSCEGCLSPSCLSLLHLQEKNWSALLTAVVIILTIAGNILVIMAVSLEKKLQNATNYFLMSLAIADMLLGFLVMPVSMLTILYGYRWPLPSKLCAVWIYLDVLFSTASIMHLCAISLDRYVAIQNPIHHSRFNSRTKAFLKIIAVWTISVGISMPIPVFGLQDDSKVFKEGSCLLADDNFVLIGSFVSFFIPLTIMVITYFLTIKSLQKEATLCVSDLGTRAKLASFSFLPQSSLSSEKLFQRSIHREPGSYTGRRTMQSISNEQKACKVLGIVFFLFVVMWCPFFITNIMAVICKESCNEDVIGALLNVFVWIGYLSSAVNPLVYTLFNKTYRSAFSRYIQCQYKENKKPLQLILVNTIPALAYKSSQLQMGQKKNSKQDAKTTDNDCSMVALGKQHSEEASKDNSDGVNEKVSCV
# Test: Calcium flux assay (Calcium secondary messenger pathway)
# Type: cell-based
# Conditions: agonist mode
# Source text: Calcium Flux Assay. Calcium Secondary Messenger Pathway. The Calcium No Wash^PLUS assay monitors the activation of a GPCR (e.g., 5HT2A) via Gq secondary messenger signaling in a live cell, non-imaging assay format. Calcium mobilization in PathHunter® cell lines or other cell lines stably expressing Gq-coupled GPCRs (e.g., 5HT2A) is monitored using a calcium-sensitive dye that is loaded into cells. GPCR (e.g., 5HT2A) activation by a compound results in the release of calcium from intracellular stores and an increase in dye fluorescence that is measured in real-time. In some embodiments, the ability of a compound of the present invention to modulate 5-HT2A function is determined using a calcium flux assay. In some embodiments, a compound of the present invention activates a calcium flux assay.
# Calcium Secondary Messenger Pathway. Cell lines were expanded from freezer stocks according to standard procedures. Cells were seeded in a total volume of 20 μL into black-walled, clear-bottom, Poly-D-lysine coated 384-well microplates and incubated at 37° C. for the appropriate time prior to testing. Assays were performed in 1× Dye Loading Buffer consisting of 1× Dye, 1× Additive A and 2.5 mM Probenecid in HBSS/20 mM Hepes. Probenicid was prepared fresh. Cells were loaded with dye prior to testing. Media was aspirated from cells and replaced with 20 μL Dye Loading Buffer. Cells were incubated for 30-60 minutes at 37° C.
# For agonist determination, cells were incubated with sample to induce response. After dye loading, cells were removed from the incubator and 10 μL HBSS/20 mM Hepes was added. 3× vehicle was included in the buffer when performing agonist dose curves to define the EC80 for subsequent antagonist assays. Cells were incubated for 30 minutes at room temperature in the dark to equilibrate plate temperature. Intermediate dilution of sample stocks was performed to generate 4× sample in assay buffer. Compound agonist activity was measured on a FLIPR Tetra (MDS). Calcium mobilization was monitored for 2 minutes and 10 μL 4× sample in HBSS/20 mM Hepes was added to the cells 5 seconds into the assay.
# Compound activity was analyzed using CBIS data analysis suite (ChemInnovation, CA). For agonist mode assays, percentage activity is calculated using the following formula: % Activity=100%×(mean RFU of test sample−mean RFU of vehicle control)/(mean MAX RFU control ligand−mean RFU of vehicle control).
row,SMILES,pEC50
1,"FC(F)(F)Oc1ccc2c(ccn2CCN2CCCCC2)c1 [Example 51, 1-(2-(piperidin-1-yl)ethyl)-5-(trifluoromethoxy)-1H-indole]",< 5.00
2,"FC(F)(F)Oc1ccc2c(ccn2CCN2CCOCC2)c1 [Example 52, 4-(2-(5-(trifluoromethoxy)-1H-indol-1-yl)ethyl)morpholine]",< 5.00
3,"CN(C)CCn1cnc2ccccc21 [Example 57, 2-(1H-benzo[d]imidazol-1-yl)-N,N-dimethylethan-1-amine]",< 5.00

# System: 5HT2A sensor
# Test: 5HT2A sensor assay, agonist mode (sLight1.3s HEK293T stable line)
# Type: cell-based
# Conditions: 100 nM compound; percent relative to 5-HT at 100 uM
# Description: In some embodiments, hallucinogenic potential of a compound of the present invention is determined in vitro. In some embodiments, hallucinogenic potential of a compound of the present invention is determined using a 5HT2A sensor assay. In some embodiments, the 5HT2A sensor assay is in an agonist mode or an antagonist mode. In some embodiments, the 5HT2A sensor assay is in an agonist mode.
# as §1, §2, §3, §4, §5, §6
row,SMILES,5HT2A Agonist mean @ 100 nM (%)
1,"FC(F)(F)Oc1ccc2c(ccn2CCN2CCCCC2)c1 [Example 51, 1-(2-(piperidin-1-yl)ethyl)-5-(trifluoromethoxy)-1H-indole]",B (does not activate 5HT2A sensor assay in agonist mode)
2,"FC(F)(F)Oc1ccc2c(ccn2CCN2CCOCC2)c1 [Example 52, 4-(2-(5-(trifluoromethoxy)-1H-indol-1-yl)ethyl)morpholine]",B (does not activate 5HT2A sensor assay in agonist mode)
3,"CN(C)CCn1cnc2ccccc21 [Example 57, 2-(1H-benzo[d]imidazol-1-yl)-N,N-dimethylethan-1-amine]",B (does not activate 5HT2A sensor assay in agonist mode)

# Same assay, conditions: 10 μM compound; percent relative to 5-HT at 100 uM
row,SMILES,5HT2A Agonist mean @ 10 μM (%)
1,"FC(F)(F)Oc1ccc2c(ccn2CCN2CCCCC2)c1 [Example 51, 1-(2-(piperidin-1-yl)ethyl)-5-(trifluoromethoxy)-1H-indole]",B (does not activate 5HT2A sensor assay in agonist mode)
2,"FC(F)(F)Oc1ccc2c(ccn2CCN2CCOCC2)c1 [Example 52, 4-(2-(5-(trifluoromethoxy)-1H-indol-1-yl)ethyl)morpholine]",B (does not activate 5HT2A sensor assay in agonist mode)
3,"CN(C)CCn1cnc2ccccc21 [Example 57, 2-(1H-benzo[d]imidazol-1-yl)-N,N-dimethylethan-1-amine]",B (does not activate 5HT2A sensor assay in agonist mode)

# Same assay, conditions: 100 μM compound; percent relative to 5-HT at 100 uM
row,SMILES,5HT2A Agonist mean @ 100 μM (%)
1,"FC(F)(F)Oc1ccc2c(ccn2CCN2CCCCC2)c1 [Example 51, 1-(2-(piperidin-1-yl)ethyl)-5-(trifluoromethoxy)-1H-indole]",B (does not activate 5HT2A sensor assay in agonist mode)
2,"FC(F)(F)Oc1ccc2c(ccn2CCN2CCOCC2)c1 [Example 52, 4-(2-(5-(trifluoromethoxy)-1H-indol-1-yl)ethyl)morpholine]",A (activates 5HT2A sensor assay in agonist mode)
3,"CN(C)CCn1cnc2ccccc21 [Example 57, 2-(1H-benzo[d]imidazol-1-yl)-N,N-dimethylethan-1-amine]",B (does not activate 5HT2A sensor assay in agonist mode)

# System: rat cortical neurons
# Test: Neurite outgrowth assay
# Type: cell-based
# Conditions: Cortical neurone, 1 hour treatment at DIV 4, analysed DIV 7, fold vs DMSO control, read-out: Neurite Average Length @ 10 μM
# Source text: Neurite outgrowth assay. Changes in the pattern of neurite outgrowth have been implicated in neurodegenerative disorders as well as traumatic injuries. The discovery of new compounds that can positively affect neuritogenesis are important for developing new therapeutics for neurological diseases. Measurement of neurite outgrowth of rat cortical neurons using an automated image-based assay was used to determine the neuroplastic effects of the compounds of the present invention. In some embodiments, a compound of the present invention increases the pattern of neurite outgrowth. In some embodiments, a compound of the present invention increases neurite average length compared to a control. In some embodiments, a compound of the present invention increases neurite branch points compared to a control. In some embodiments, a compound of the present invention increases neurite average length and neurite branch points compared to a control.
# Neurite Outgrowth Assay. Rat cortical neurons (20,000 cells/well) were freshly isolated from embryonic day 18 rats and cultured in Neurobasal Medium (+B27). The cultured cells were plated in 96 well-plates (avoiding external wells). At DIV 4, the neurons were treated with compound or control (10 μM) for 1 hour followed by complete washout of the compound. At DIV 7, the neurons were analyzed. The experiments were performed in triplicate. Neurite outgrowth was measured analyzing the following parameters: Number of Cell Bodies, total neurite length (pixels), Root Count, Segments, Extremities Count and node points. Changes in the pattern of neurite outgrowth of the neurons were analyzed by immunocytochemistry against β-III-tubulin. Pictures were acquired by the CellInsight CX7 from Thermo Fisher and analyzed using its software. Results generated in the equipment were maximum neurite length, extremity count, root count, dendrite branch points, and total neurite length. The results were compared to DMSO control, representing the fold-change in neuronal outgrowth.
row,SMILES,fold induction at 10 µM
1,"FC(F)(F)Oc1ccc2c(ccn2CCN2CCCCC2)c1 [Example 51, 1-(2-(piperidin-1-yl)ethyl)-5-(trifluoromethoxy)-1H-indole]",1.5 to 3
2,"FC(F)(F)Oc1ccc2c(ccn2CCN2CCOCC2)c1 [Example 52, 4-(2-(5-(trifluoromethoxy)-1H-indol-1-yl)ethyl)morpholine]",1.5 to 3
3,"CN(C)CCn1cnc2ccccc21 [Example 57, 2-(1H-benzo[d]imidazol-1-yl)-N,N-dimethylethan-1-amine]",1.5 to 3

# Same assay, conditions: Cortical neurone, 1 hour treatment at DIV 4, analysed DIV 7, fold vs DMSO control, read-out: Neurite Branch Points: @ 10 μM
row,SMILES,fold induction at 10 µM
1,"FC(F)(F)Oc1ccc2c(ccn2CCN2CCCCC2)c1 [Example 51, 1-(2-(piperidin-1-yl)ethyl)-5-(trifluoromethoxy)-1H-indole]",1.5 to 3
2,"FC(F)(F)Oc1ccc2c(ccn2CCN2CCOCC2)c1 [Example 52, 4-(2-(5-(trifluoromethoxy)-1H-indol-1-yl)ethyl)morpholine]",1.5 to 3
3,"CN(C)CCn1cnc2ccccc21 [Example 57, 2-(1H-benzo[d]imidazol-1-yl)-N,N-dimethylethan-1-amine]",1.5 to 3

# Source: patent US11254640B2, “N-substituted indoles and other heterocycles for treating brain disorders” (The Regents of the University of California, priority 2019, dated 2022)
